Laboratory results from patent US6914045B2, “Glycopeptide antibiotics” (Wyeth Holdings Corporation, priority 2001, dated 2005).
In brackets after ≈: the same amount, converted by molar mass.

How the values were obtained:
Test in all cases: in vitro antibacterial evaluation, MIC by broth dilution
Format in all cases: cell-based
[1] = system: Enterococcus sp.; conditions: broth dilution, 18 hours at 35° C.
Outline: (§1)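 MIC, the lowest antibiotic concentration preventing growth, was read across 64-0.06 μg/mL with 5×10^5 CFU/mL inoculum. Method followed NCCLS M7-A2 broth dilution using Mueller-Hinton II; Gram-positive strains covered recent methicillin-, penicillin- and/or vancomycin-resistant clinical isolates.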

[2] = system: Escherichia coli; conditions: 18 hours at 35° C.
Outline: as §1

[3] = system: Staphylococcus sp.; conditions: broth dilution, 18 hours at 35° C.
Outline: as §1

[4] = system: Streptococcus sp.; conditions: broth dilution, 18 hours at 35° C.
Outline: as §1

In the case of `CC(c1ccccc1)C1NC(=O)CNC(=O)C(CO)NC(=O)C(C(O)C2CNC(=N)N2C2OC(CO)C(O)C(O)C2O)NC(=O)C(C(O)C2CNC(=N)N2)NC(=O)C(Cc2ccc(OC3OC(CO)C(OC4OC5COC(CCc6ccccc6)OC5C(O)C4O)C(O)C3O)cc2)NC1=O` (stereo not shown) [Example 124], the “MIC Enterococcus avium (GC 4558)” value ([1]; Enterococcus avium (GC 4558)) is reported as 0.25 µg/mL (≈ 0.177 µM), the “MIC Enterococcus faecalis (ATCC 29212)” value ([1]; Enterococcus faecalis (ATCC 29212)) is reported as 4 µg/mL (≈ 2.83 µM) and the “MIC Enterococcus faecalis (GC 2242)” value ([1]; Enterococcus faecalis (GC 2242)) is reported as 4 µg/mL (≈ 2.83 µM). For the same compound, the “MIC Enterococcus faecalis (GC 2691)” value ([1]; Enterococcus faecalis (GC 2691)) was 4 µg/mL (≈ 2.83 µM), the “MIC Enterococcus faecalis (GC 3059)” value ([1]; Enterococcus faecalis (GC 3059)) was 4 µg/mL (≈ 2.83 µM) and the “MIC Enterococcus faecalis (GC 4552)” value ([1]; Enterococcus faecalis (GC 4552)) was 4 µg/mL (≈ 2.83 µM). For the same compound, the “MIC Enterococcus faecalis (GC 4553)” value ([1]; Enterococcus faecalis (GC 4553)) was 4 µg/mL (≈ 2.83 µM), the “MIC Enterococcus faecalis (GC 4554)” value ([1]; Enterococcus faecalis (GC 4554)) was 4 µg/mL (≈ 2.83 µM) and the “MIC Enterococcus faecalis (GC 6189)” value ([1]; Enterococcus faecalis (GC 6189)) was 4 µg/mL (≈ 2.83 µM). The “MIC Enterococcus faecium (GC 2243)” value ([1]; Enterococcus faecium (GC 2243)) was 4 µg/mL (≈ 2.83 µM), the “MIC Enterococcus faecium (GC 4556)” value ([1]; Enterococcus faecium (GC 4556)) was 4 µg/mL (≈ 2.83 µM) and the “MIC Enterococcus faecium (GC 4557)” value ([1]; Enterococcus faecium (GC 4557)) was 1 µg/mL (≈ 0.708 µM). The “MIC Enterococcus faecalis (ATCC 29212)” value ([1]; strain ATCC 29212) was 4 µg/mL (≈ 2.83 µM), the “MIC Enterococcus faecalis (GC 2242)” value ([1]; strain GC 2242) was 4 µg/mL (≈ 2.83 µM) and the “MIC Enterococcus faecium (GC 2243)” value ([1]; strain GC 2243) was 4 µg/mL (≈ 2.83 µM). The “MIC Enterococcus faecalis (GC 2691)” value ([1]; strain GC 2691) was 4 µg/mL (≈ 2.83 µM), the “MIC Enterococcus faecalis (GC 3059)” value ([1]; strain GC 3059) was 4 µg/mL (≈ 2.83 µM) and the “MIC Enterococcus faecalis (GC 4552)” value ([1]; strain GC 4552) was 4 µg/mL (≈ 2.83 µM). For the same compound, the “MIC Enterococcus faecalis (GC 4553)” value ([1]; strain GC 4553) was 4 µg/mL (≈ 2.83 µM), the “MIC Enterococcus faecalis (GC 4554)” value ([1]; strain GC 4554) was 4 µg/mL (≈ 2.83 µM) and the “MIC Enterococcus faecium (GC 4556)” value ([1]; strain GC 4556) was 4 µg/mL (≈ 2.83 µM). For the same compound, the “MIC Enterococcus faecium (GC 4557)” value ([1]; strain GC 4557) was 1 µg/mL (≈ 0.708 µM), the “MIC Enterococcus avium (GC 4558)” value ([1]; strain GC 4558) was 0.25 µg/mL (≈ 0.177 µM) and the “MIC Enterococcus faecalis (GC 6189)” value ([1]; strain GC 6189) was 4 µg/mL (≈ 2.83 µM). The “MIC Escherichia coli (ATCC 25922)” value ([2]; strain ATCC 25922) was 32 µg/mL (≈ 22.7 µM), the “MIC Escherichia coli (GC 4559)” value ([2]; strain GC 4559) was 32 µg/mL (≈ 22.7 µM) and the “MIC Escherichia coli (GC 4560)” value ([2]; strain GC 4560) was 1 µg/mL (≈ 0.708 µM). The “MIC Staphylococcus aureus (ATCC 29213)” value [3] was 2 µg/mL (≈ 1.42 µM), the “MIC Staphylococcus aureus (GC 1131)” value [3] was 2 µg/mL (≈ 1.42 µM) and the “MIC Staphylococcus aureus (GC 3051)” value [3] was 2 µg/mL (≈ 1.42 µM). The “MIC Staphylococcus aureus (GC 3053)” value [3] was 2 µg/mL (≈ 1.42 µM), the “MIC Staphylococcus aureus (GC 4541)” value [3] was 2 µg/mL (≈ 1.42 µM) and the “MIC Staphylococcus aureus (GC 4542)” value [3] was 1 µg/mL (≈ 0.708 µM). The “MIC Staphylococcus aureus (GC 4544)” value [3] was 2 µg/mL (≈ 1.42 µM), the “MIC Staphylococcus aureus (GC 4545)” value [3] was 2 µg/mL (≈ 1.42 µM) and the “MIC Staphylococcus aureus (GC 1131)” value ([3]; inoculum 5×10^5 CFU/mL, strain GC 1131) was 2 µg/mL (≈ 1.42 µM). The “MIC Staphylococcus aureus (ATCC 29213)” value ([3]; strain ATCC 29213) was 2 µg/mL (≈ 1.42 µM), the “MIC Staphylococcus aureus (GC 3051)” value ([3]; strain GC 3051) was 2 µg/mL (≈ 1.42 µM) and the “MIC Staphylococcus aureus (GC 3053)” value ([3]; strain GC 3053) was 2 µg/mL (≈ 1.42 µM). For the same compound, the “MIC Staphylococcus aureus (GC 4541)” value ([3]; strain GC 4541) was 2 µg/mL (≈ 1.42 µM), the “MIC Staphylococcus aureus (GC 4542)” value ([3]; strain GC 4542) was 1 µg/mL (≈ 0.708 µM) and the “MIC Staphylococcus aureus-SMITH (GC 4543)” value ([3]; strain GC 4543) was 2 µg/mL (≈ 1.42 µM). For the same compound, the “MIC Staphylococcus aureus (GC 4544)” value ([3]; strain GC 4544) was 2 µg/mL (≈ 1.42 µM), the “MIC Staphylococcus aureus (GC 4545)” value ([3]; strain GC 4545) was 2 µg/mL (≈ 1.42 µM) and the “MIC Staphylococcus haemolyticus (GC 4546)” value ([3]; strain GC 4546) was 2 µg/mL (≈ 1.42 µM). For the same compound, the “MIC Coagulase Negative Staphylococcus (GC 4547)” value ([3]; strain GC 4547) was 2 µg/mL (≈ 1.42 µM), the “MIC Coagulase Negative Staphylococcus (GC 4548)” value ([3]; strain GC 4548) was 1 µg/mL (≈ 0.708 µM) and the “MIC Coagulase Negative Staphylococcus (GC 4549)” value ([3]; strain GC 4549) was 1 µg/mL (≈ 0.708 µM). The “MIC Coagulase Negative Staphylococcus (GC 4551)” value ([3]; strain GC 4551) was 2 µg/mL (≈ 1.42 µM), the “MIC Coagulase Negative Staphylococcus (GC 6257)” value ([3]; strain GC 6257) was 1 µg/mL (≈ 0.708 µM) and the “MIC Staphylococcus aureus-SMITH (GC 4543)” value ([3]; strain SMITH GC 4543) was 2 µg/mL (≈ 1.42 µM). The “MIC Streptococcus agalactiae (GC 4564)” value ([4]; Streptococcus agalactiae (GC 4564)) was 1 µg/mL (≈ 0.708 µM), the “MIC Streptococcus pneumoniae (ATCC 6301)” value ([4]; Streptococcus pneumoniae (ATCC 6301)) was under 0.06 µg/mL and the “MIC Streptococcus pneumoniae (GC 1894)” value ([4]; Streptococcus pneumoniae (GC 1894)) was under 0.06 µg/mL. The “MIC Streptococcus pneumoniae (GC 4565)” value ([4]; Streptococcus pneumoniae (GC 4565)) was under 0.06 µg/mL, the “MIC Streptococcus pyogenes (GC 4563)” value ([4]; Streptococcus pyogenes (GC 4563)) was 0.12 µg/mL (≈ 0.085 µM) and the “MIC Streptococcus pneumoniae (ATCC 6301)” value ([4]; strain ATCC 6301) was under 0.06 µg/mL. The “MIC Streptococcus pneumoniae (GC 1894)” value ([4]; strain GC 1894) was under 0.06 µg/mL, the “MIC Streptococcus pyogenes (GC 4563)” value ([4]; strain GC 4563) was 0.12 µg/mL (≈ 0.085 µM) and the “MIC Streptococcus agalactiae (GC 4564)” value ([4]; strain GC 4564) was 1 µg/mL (≈ 0.708 µM). For the same compound, the “MIC Streptococcus pneumoniae (GC 4565)” value ([4]; strain GC 4565) was under 0.06 µg/mL.
